tested on: soybean plants (variety S20-G7); experiment: Reduced plant water use in soybean (foliar spray, repeated weighing of pots); format: in vivo; details: Glycine max, foliar, 0 h, Table B1, sprayed at 500 μM, vs negative control, 0 DAA a.m. (10:30-12:50), read-out: % WU 0 DAA AM
Method in brief: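 Compounds in blank EC formulation diluted in water with EXTRAVON 1 g/20 L, foliar-sprayed on 12-day-old soybean in growth chambers. Water use from repeated pot weighing at a.m./p.m. periods over 0-2 DAA, summed to cumulative 0-2.5 DAA; ANCOVA with pre-application baseline covariate, relative to blank-formulation control.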

Compared with `CCCN1C(=O)CCc2cc(CNS(=O)(=O)c3cn(C)cn3)ccc21` [Compound 3.063, 1-methyl-N-[(2-oxo-1-propyl-3,4-dihydroquinolin-6-yl)methyl]imidazole-4-sulfonamide], `CCCN1C(=O)CCc2cc(CNS(=O)(=O)c3ccccc3F)ccc21` [Compound 3.007, 2-fluoro-N-[(2-oxo-1-propyl-3,4-dihydroquinolin-6-yl)methyl]benzenesulfonamide] is lower in change in vivo at 500 µM: -9.3% for the first, -16.1% for the second.

With `CCCN1C(=O)CCc2cc(CNS(=O)(=O)c3c(F)cccc3F)ccc21` [Compound 3.005, 2,6-difluoro-N-[(2-oxo-1-propyl-3,4-dihydroquinolin-6-yl)methyl]benzenesulfonamide] the change in vivo at 500 µM was -37.5%.

same assay, conditions: Glycine max, foliar, 24 h, Table B1, sprayed at 500 μM, vs negative control, 1 DAA a.m. (7:30-12:50), read-out: % WU 1DAA AM

First: CCCN1C(=O)CCc2cc(CNS(=O)(=O)c3cn(C)cn3)ccc21 [Compound 3.063, 1-methyl-N-[(2-oxo-1-propyl-3,4-dihydroquinolin-6-yl)methyl]imidazole-4-sulfonamide]
Second: CCCN1C(=O)CCc2cc(CNS(=O)(=O)c3ccccc3F)ccc21 [Compound 3.007, 2-fluoro-N-[(2-oxo-1-propyl-3,4-dihydroquinolin-6-yl)methyl]benzenesulfonamide]
The change in vivo at 500 µM of the first is higher: -5.1% for the first, -12.7% for the second.

`CCCN1C(=O)CCc2cc(CNS(=O)(=O)c3c(F)cccc3F)ccc21` [Compound 3.005, 2,6-difluoro-N-[(2-oxo-1-propyl-3,4-dihydroquinolin-6-yl)methyl]benzenesulfonamide] showed a change in vivo at 500 µM of -24.9%.

same assay, conditions: Glycine max, foliar, 24 h, Table B1, sprayed at 500 μM, vs negative control, 1 DAA p.m. (14:00-19:50), read-out: % WU 1DAA PM

Compared with `CCCN1C(=O)CCc2cc(CNS(=O)(=O)c3cn(C)cn3)ccc21` [Compound 3.063, 1-methyl-N-[(2-oxo-1-propyl-3,4-dihydroquinolin-6-yl)methyl]imidazole-4-sulfonamide], `CCCN1C(=O)CCc2cc(CNS(=O)(=O)c3ccccc3F)ccc21` [Compound 3.007, 2-fluoro-N-[(2-oxo-1-propyl-3,4-dihydroquinolin-6-yl)methyl]benzenesulfonamide] is lower in change in vivo at 500 µM: -3.9% for the first, -9.7% for the second.

Compound `CCCN1C(=O)CCc2cc(CNS(=O)(=O)c3c(F)cccc3F)ccc21` [Compound 3.005, 2,6-difluoro-N-[(2-oxo-1-propyl-3,4-dihydroquinolin-6-yl)methyl]benzenesulfonamide] has a change in vivo at 500 µM of -21.9%.

same assay, conditions: Glycine max, foliar, 48 h, Table B1, sprayed at 500 μM, vs negative control, 2 DAA a.m. (07:30-12:50), read-out: % WU 2 DAA AM

Going from `CCCN1C(=O)CCc2cc(CNS(=O)(=O)c3cn(C)cn3)ccc21` [Compound 3.063, 1-methyl-N-[(2-oxo-1-propyl-3,4-dihydroquinolin-6-yl)methyl]imidazole-4-sulfonamide] to `CCCN1C(=O)CCc2cc(CNS(=O)(=O)c3ccccc3F)ccc21` [Compound 3.007, 2-fluoro-N-[(2-oxo-1-propyl-3,4-dihydroquinolin-6-yl)methyl]benzenesulfonamide], the change in vivo at 500 µM falls from -6.6% to -7.7%.

For `CCCN1C(=O)CCc2cc(CNS(=O)(=O)c3c(F)cccc3F)ccc21` [Compound 3.005, 2,6-difluoro-N-[(2-oxo-1-propyl-3,4-dihydroquinolin-6-yl)methyl]benzenesulfonamide], the change in vivo at 500 µM was -12.9%.

same assay, conditions: Glycine max, foliar, 48 h, Table B1, sprayed at 500 μM, vs negative control, 2 DAA p.m. (14:00-19:50), read-out: % WU 2 DAA PM

First: CCCN1C(=O)CCc2cc(CNS(=O)(=O)c3cn(C)cn3)ccc21 [Compound 3.063, 1-methyl-N-[(2-oxo-1-propyl-3,4-dihydroquinolin-6-yl)methyl]imidazole-4-sulfonamide]
Second: CCCN1C(=O)CCc2cc(CNS(=O)(=O)c3ccccc3F)ccc21 [Compound 3.007, 2-fluoro-N-[(2-oxo-1-propyl-3,4-dihydroquinolin-6-yl)methyl]benzenesulfonamide]
The change in vivo at 500 µM of the first is higher: -5% for the first, -7.6% for the second.

Work on `CCCN1C(=O)CCc2cc(CNS(=O)(=O)c3c(F)cccc3F)ccc21` [Compound 3.005, 2,6-difluoro-N-[(2-oxo-1-propyl-3,4-dihydroquinolin-6-yl)methyl]benzenesulfonamide] yielded a change in vivo at 500 µM of -12%.

same assay, conditions: Glycine max, foliar, 60 h, Table B1, sprayed at 500 μM, vs negative control, cumulative total WU (0-2.5 DAA), read-out: % WU Total 0 to 2.5 DAA

Going from `CCCN1C(=O)CCc2cc(CNS(=O)(=O)c3cn(C)cn3)ccc21` [Compound 3.063, 1-methyl-N-[(2-oxo-1-propyl-3,4-dihydroquinolin-6-yl)methyl]imidazole-4-sulfonamide] to `CCCN1C(=O)CCc2cc(CNS(=O)(=O)c3ccccc3F)ccc21` [Compound 3.007, 2-fluoro-N-[(2-oxo-1-propyl-3,4-dihydroquinolin-6-yl)methyl]benzenesulfonamide], the change in vivo at 500 µM falls from -5.5% to -10.8%.

For `CCCN1C(=O)CCc2cc(CNS(=O)(=O)c3c(F)cccc3F)ccc21` [Compound 3.005, 2,6-difluoro-N-[(2-oxo-1-propyl-3,4-dihydroquinolin-6-yl)methyl]benzenesulfonamide], the change in vivo at 500 µM was -21.9%.

tested on: corn plants (variety NK OCTET); experiment: Reduced plant water use in corn (foliar spray, repeated weighing of pots); format: in vivo; details: Zea mays, 0 h, corn plants sprayed at 500 μM, water use during day time vs negative control, 0 DAA a.m. (10:30-12:50), average of 6 pots, read-out: % WU 0 DAA AM
Method in brief: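 Twelve-day-old corn plants sprayed on foliage with EC formulations diluted in water with 0.4% rape seed methyl ester. Day-time water use tracked by repeated pot weighing through 2.5 DAA, summed cumulatively; analysed by covariance with water use 1 day before application as baseline.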

Compared with `CCCN1C(=O)CCc2cc(CNS(=O)(=O)c3cn(C)cn3)ccc21` [Compound 3.063, 1-methyl-N-[(2-oxo-1-propyl-3,4-dihydroquinolin-6-yl)methyl]imidazole-4-sulfonamide], `CCCN1C(=O)CCc2cc(CNS(=O)(=O)c3ccccc3F)ccc21` [Compound 3.007, 2-fluoro-N-[(2-oxo-1-propyl-3,4-dihydroquinolin-6-yl)methyl]benzenesulfonamide] is lower in change in vivo at 500 µM: -8.4% for the first, -16% for the second.

`CCCN1C(=O)CCc2cc(CNS(=O)(=O)c3c(F)cccc3F)ccc21` [Compound 3.005, 2,6-difluoro-N-[(2-oxo-1-propyl-3,4-dihydroquinolin-6-yl)methyl]benzenesulfonamide] gave a change in vivo at 500 µM of -16.2%.

same assay, conditions: Zea mays, 0 h, corn plants sprayed at 500 μM, water use during day time vs negative control, 0 DAA p.m. (14:00-19:50), average of 6 pots, read-out: % WU 0DAA PM

Going from `CCCN1C(=O)CCc2cc(CNS(=O)(=O)c3cn(C)cn3)ccc21` [Compound 3.063, 1-methyl-N-[(2-oxo-1-propyl-3,4-dihydroquinolin-6-yl)methyl]imidazole-4-sulfonamide] to `CCCN1C(=O)CCc2cc(CNS(=O)(=O)c3ccccc3F)ccc21` [Compound 3.007, 2-fluoro-N-[(2-oxo-1-propyl-3,4-dihydroquinolin-6-yl)methyl]benzenesulfonamide], the change in vivo at 500 µM falls from -3.1% to -12%.

Work on `CCCN1C(=O)CCc2cc(CNS(=O)(=O)c3c(F)cccc3F)ccc21` [Compound 3.005, 2,6-difluoro-N-[(2-oxo-1-propyl-3,4-dihydroquinolin-6-yl)methyl]benzenesulfonamide] yielded a change in vivo at 500 µM of -10.5%.

same assay, conditions: Zea mays, 24 h, corn plants sprayed at 500 μM, water use during day time vs negative control, 1 DAA a.m. (07:30-12:50), average of 6 pots, read-out: % WU 1DAA AM

First: CCCN1C(=O)CCc2cc(CNS(=O)(=O)c3cn(C)cn3)ccc21 [Compound 3.063, 1-methyl-N-[(2-oxo-1-propyl-3,4-dihydroquinolin-6-yl)methyl]imidazole-4-sulfonamide]
Second: CCCN1C(=O)CCc2cc(CNS(=O)(=O)c3ccccc3F)ccc21 [Compound 3.007, 2-fluoro-N-[(2-oxo-1-propyl-3,4-dihydroquinolin-6-yl)methyl]benzenesulfonamide]
The change in vivo at 500 µM of the first is higher: -3% for the first, -11.4% for the second.

Compound `CCCN1C(=O)CCc2cc(CNS(=O)(=O)c3c(F)cccc3F)ccc21` [Compound 3.005, 2,6-difluoro-N-[(2-oxo-1-propyl-3,4-dihydroquinolin-6-yl)methyl]benzenesulfonamide] has a change in vivo at 500 µM of -9.2%.

same assay, conditions: Zea mays, 24 h, corn plants sprayed at 500 μM, water use during day time vs negative control, 1 DAA p.m. (14:00-19:50), average of 6 pots, read-out: % WU 1DAA PM

Compared with `CCCN1C(=O)CCc2cc(CNS(=O)(=O)c3cn(C)cn3)ccc21` [Compound 3.063, 1-methyl-N-[(2-oxo-1-propyl-3,4-dihydroquinolin-6-yl)methyl]imidazole-4-sulfonamide], `CCCN1C(=O)CCc2cc(CNS(=O)(=O)c3ccccc3F)ccc21` [Compound 3.007, 2-fluoro-N-[(2-oxo-1-propyl-3,4-dihydroquinolin-6-yl)methyl]benzenesulfonamide] is lower in change in vivo at 500 µM: -1% for the first, -9.5% for the second.

Compound `CCCN1C(=O)CCc2cc(CNS(=O)(=O)c3c(F)cccc3F)ccc21` [Compound 3.005, 2,6-difluoro-N-[(2-oxo-1-propyl-3,4-dihydroquinolin-6-yl)methyl]benzenesulfonamide] has a change in vivo at 500 µM of -7.9%.

same assay, conditions: Zea mays, 48 h, corn plants sprayed at 500 μM, water use during day time vs negative control, 2 DAA a.m. (07:30-12:50), average of 6 pots, read-out: % WU 2 DAA AM

First: CCCN1C(=O)CCc2cc(CNS(=O)(=O)c3cn(C)cn3)ccc21 [Compound 3.063, 1-methyl-N-[(2-oxo-1-propyl-3,4-dihydroquinolin-6-yl)methyl]imidazole-4-sulfonamide]
Second: CCCN1C(=O)CCc2cc(CNS(=O)(=O)c3ccccc3F)ccc21 [Compound 3.007, 2-fluoro-N-[(2-oxo-1-propyl-3,4-dihydroquinolin-6-yl)methyl]benzenesulfonamide]
The change in vivo at 500 µM of the first is higher: -1.5% for the first, -6.6% for the second.

Work on `CCCN1C(=O)CCc2cc(CNS(=O)(=O)c3c(F)cccc3F)ccc21` [Compound 3.005, 2,6-difluoro-N-[(2-oxo-1-propyl-3,4-dihydroquinolin-6-yl)methyl]benzenesulfonamide] yielded a change in vivo at 500 µM of -5.4%.

same assay, conditions: Zea mays, 48 h, corn plants sprayed at 500 μM, water use during day time vs negative control, 2 DAA p.m. (14:00-19:50), average of 6 pots, read-out: % WU 2 DAA PM

Going from `CCCN1C(=O)CCc2cc(CNS(=O)(=O)c3cn(C)cn3)ccc21` [Compound 3.063, 1-methyl-N-[(2-oxo-1-propyl-3,4-dihydroquinolin-6-yl)methyl]imidazole-4-sulfonamide] to `CCCN1C(=O)CCc2cc(CNS(=O)(=O)c3ccccc3F)ccc21` [Compound 3.007, 2-fluoro-N-[(2-oxo-1-propyl-3,4-dihydroquinolin-6-yl)methyl]benzenesulfonamide], the change in vivo at 500 µM falls from 2% to -5.9%.

`CCCN1C(=O)CCc2cc(CNS(=O)(=O)c3c(F)cccc3F)ccc21` [Compound 3.005, 2,6-difluoro-N-[(2-oxo-1-propyl-3,4-dihydroquinolin-6-yl)methyl]benzenesulfonamide] gave a change in vivo at 500 µM of -5.3%.

same assay, conditions: Zea mays, 60 h, corn plants sprayed at 500 μM, cumulative total water use 0-2.5 DAA (sum of the time points) vs negative control, average of 6 pots, read-out: % WU Total 0 to 2.5 DAA

Going from `CCCN1C(=O)CCc2cc(CNS(=O)(=O)c3cn(C)cn3)ccc21` [Compound 3.063, 1-methyl-N-[(2-oxo-1-propyl-3,4-dihydroquinolin-6-yl)methyl]imidazole-4-sulfonamide] to `CCCN1C(=O)CCc2cc(CNS(=O)(=O)c3ccccc3F)ccc21` [Compound 3.007, 2-fluoro-N-[(2-oxo-1-propyl-3,4-dihydroquinolin-6-yl)methyl]benzenesulfonamide], the change in vivo at 500 µM falls from -1.4% to -9.4%.

Work on `CCCN1C(=O)CCc2cc(CNS(=O)(=O)c3c(F)cccc3F)ccc21` [Compound 3.005, 2,6-difluoro-N-[(2-oxo-1-propyl-3,4-dihydroquinolin-6-yl)methyl]benzenesulfonamide] yielded a change in vivo at 500 µM of -8.2%.

tested on: not given; experiment: not given; details: not given

First: CCCN1C(=O)CCc2cc(CNS(=O)(=O)c3cn(C)cn3)ccc21 [Compound 3.063, 1-methyl-N-[(2-oxo-1-propyl-3,4-dihydroquinolin-6-yl)methyl]imidazole-4-sulfonamide]
Second: CCCN1C(=O)CCc2cc(CNS(=O)(=O)c3ccccc3F)ccc21 [Compound 3.007, 2-fluoro-N-[(2-oxo-1-propyl-3,4-dihydroquinolin-6-yl)methyl]benzenesulfonamide]
The melting point of the first is higher: 168 to 171 °C for the first, 155 to 156 °C for the second.

Work on `CCCN1C(=O)CCc2cc(CNS(=O)(=O)c3c(F)cccc3F)ccc21` [Compound 3.005, 2,6-difluoro-N-[(2-oxo-1-propyl-3,4-dihydroquinolin-6-yl)methyl]benzenesulfonamide] yielded a melting point of 182 to 183 °C.

Source: US10392348B2, “2-oxo-3,4-dihydroquinoline compounds as plant growth regulators” (Syngenta Participations AG, priority 2015, dated 2019)
